In ChEMBL document CHEMBL1140040, “Synthesis and cytotoxic activity of some novel polycyclic gamma-butyrolactones” (Bioorg Med Chem Lett, 2008):

Experiments:
DU-145 [1] = assay: Cytotoxicity against human DU145 cells assessed as age growth inhibition at 20 uM after 48 hrs by sulforhodamine B assay; format: functional; details: DU-145, 48 h, read-out: GI
COLO 205 [2] = assay: Cytotoxicity against human COLO205 cells assessed as age growth inhibition at 20 uM after 48 hrs by sulforhodamine B assay; format: functional; details: COLO 205, 48 h, read-out: GI
HCT-15 [3] = assay: Cytotoxicity against human HCT15 cells assessed as age growth inhibition at 20 uM after 48 hrs by sulforhodamine B assay; format: functional; details: HCT-15, 48 h, read-out: GI
SK-OV-3 [4] = assay: Cytotoxicity against human SKOV3 cells assessed as age growth inhibition at 20 uM after 48 hrs by sulforhodamine B assay; format: functional; details: SK-OV-3, 48 h, read-out: GI
A549 [5] = assay: Cytotoxicity against human A549 cells assessed as age growth inhibition at 20 uM after 48 hrs by sulforhodamine B assay; format: functional; details: A549, 48 h, read-out: GI
IGROV-1 [6] = assay: Cytotoxicity against human IGROV1 cells assessed as age growth inhibition at 20 uM after 48 hrs by sulforhodamine B assay; format: functional; details: IGROV-1, 48 h, read-out: GI
HOP-62 [7] = assay: Cytotoxicity against human HOP62 cells assessed as age growth inhibition at 20 uM after 48 hrs by sulforhodamine B assay; format: functional; details: HOP-62, 48 h, read-out: GI
HEp-2 [8] = assay: Cytotoxicity against human HEP2 cells assessed as age growth inhibition at 20 uM after 48 hrs by sulforhodamine B assay; format: functional; details: HEp-2, 48 h, read-out: GI
SF-295 [9] = assay: Cytotoxicity against human SF295 cells assessed as age growth inhibition at 20 uM after 48 hrs by sulforhodamine B assay; format: functional; details: SF-295, 48 h, read-out: GI
DU-145 [10] = assay: Cytotoxicity against human DU145 cells assessed as age growth inhibition at 10 uM after 48 hrs by sulforhodamine B assay; format: functional; details: DU-145, 48 h, read-out: GI
DU-145 [11] = assay: Cytotoxicity against human DU145 cells assessed as age growth inhibition at 50 uM after 48 hrs by sulforhodamine B assay; format: functional; details: DU-145, 48 h, read-out: GI
HOP-62 [12] = assay: Cytotoxicity against human HOP62 cells assessed as age growth inhibition at 100 uM after 48 hrs by sulforhodamine B assay; format: functional; details: HOP-62, 48 h, read-out: GI
HOP-62 [13] = assay: Cytotoxicity against human HOP62 cells assessed as age growth inhibition at 50 uM after 48 hrs by sulforhodamine B assay; format: functional; details: HOP-62, 48 h, read-out: GI
SF-295 [14] = assay: Antiproliferative activity against human SF295 cells after 48 hrs by sulforhodamine B assay; format: functional, cell-based; details: SF-295, 48 h
IGROV-1 [15] = assay: Cytotoxicity against human IGROV1 cells assessed as age growth inhibition at 100 uM after 48 hrs by sulforhodamine B assay; format: functional; details: IGROV-1, 48 h, read-out: GI
SF-295 [16] = assay: Cytotoxicity against human SF295 cells assessed as age growth inhibition at 100 uM after 48 hrs by sulforhodamine B assay; format: functional; details: SF-295, 48 h, read-out: GI
SF-295 [17] = assay: Cytotoxicity against human SF295 cells assessed as age growth inhibition at 10 uM after 48 hrs by sulforhodamine B assay; format: functional; details: SF-295, 48 h, read-out: GI
HEp-2 [18] = assay: Cytotoxicity against human HEP2 cells assessed as age growth inhibition at 10 uM after 48 hrs by sulforhodamine B assay; format: functional; details: HEp-2, 48 h, read-out: GI
COLO 205 [19] = assay: Cytotoxicity against human COLO205 cells assessed as age growth inhibition at 10 uM after 48 hrs by sulforhodamine B assay; format: functional; details: COLO 205, 48 h, read-out: GI
COLO 205 [20] = assay: Cytotoxicity against human COLO205 cells assessed as age growth inhibition at 50 uM after 48 hrs by sulforhodamine B assay; format: functional; details: COLO 205, 48 h, read-out: GI
COLO 205 [21] = assay: Antiproliferative activity against human COLO205 cells after 48 hrs by sulforhodamine B assay; format: functional, cell-based; details: COLO 205, 48 h
SK-OV-3 [22] = assay: Cytotoxicity against human SKOV3 cells assessed as age growth inhibition at 50 uM after 48 hrs by sulforhodamine B assay; format: functional; details: SK-OV-3, 48 h, read-out: GI
IGROV-1 [23] = assay: Cytotoxicity against human IGROV1 cells assessed as age growth inhibition at 10 uM after 48 hrs by sulforhodamine B assay; format: functional; details: IGROV-1, 48 h, read-out: GI
DU-145 [24] = assay: Cytotoxicity against human DU145 cells assessed as age growth inhibition at 100 uM after 48 hrs by sulforhodamine B assay; format: functional; details: DU-145, 48 h, read-out: GI
A549 [25] = assay: Cytotoxicity against human A549 cells assessed as age growth inhibition at 10 uM after 48 hrs by sulforhodamine B assay; format: functional; details: A549, 48 h, read-out: GI
HCT-15 [26] = assay: Cytotoxicity against human HCT15 cells assessed as age growth inhibition at 100 uM after 48 hrs by sulforhodamine B assay; format: functional; details: HCT-15, 48 h, read-out: GI
A549 [27] = assay: Cytotoxicity against human A549 cells assessed as age growth inhibition at 50 uM after 48 hrs by sulforhodamine B assay; format: functional; details: A549, 48 h, read-out: GI
HOP-62 [28] = assay: Cytotoxicity against human HOP62 cells assessed as age growth inhibition at 10 uM after 48 hrs by sulforhodamine B assay; format: functional; details: HOP-62, 48 h, read-out: GI
HEp-2 [29] = assay: Antiproliferative activity against human HEP2 cells after 48 hrs by sulforhodamine B assay; format: functional, cell-based; details: HEp-2, 48 h
SK-OV-3 [30] = assay: Cytotoxicity against human SKOV3 cells assessed as age growth inhibition at 100 uM after 48 hrs by sulforhodamine B assay; format: functional; details: SK-OV-3, 48 h, read-out: GI
HCT-15 [31] = assay: Cytotoxicity against human HCT15 cells assessed as age growth inhibition at 50 uM after 48 hrs by sulforhodamine B assay; format: functional; details: HCT-15, 48 h, read-out: GI
SK-OV-3 [32] = assay: Cytotoxicity against human SKOV3 cells assessed as age growth inhibition at 10 uM after 48 hrs by sulforhodamine B assay; format: functional; details: SK-OV-3, 48 h, read-out: GI
IGROV-1 [33] = assay: Antiproliferative activity against human IGROV1 cells after 48 hrs by sulforhodamine B assay; format: functional, cell-based; details: IGROV-1, 48 h
A549 [34] = assay: Antiproliferative activity against human A549 cells after 48 hrs by sulforhodamine B assay; format: functional, cell-based; details: A549, 48 h
HEp-2 [35] = assay: Cytotoxicity against human HEP2 cells assessed as age growth inhibition at 50 uM after 48 hrs by sulforhodamine B assay; format: functional; details: HEp-2, 48 h, read-out: GI
IGROV-1 [36] = assay: Cytotoxicity against human IGROV1 cells assessed as age growth inhibition at 50 uM after 48 hrs by sulforhodamine B assay; format: functional; details: IGROV-1, 48 h, read-out: GI
HOP-62 [37] = assay: Antiproliferative activity against human HOP62 cells after 48 hrs by sulforhodamine B assay; format: functional, cell-based; details: HOP-62, 48 h
A549 [38] = assay: Cytotoxicity against human A549 cells assessed as age growth inhibition at 100 uM after 48 hrs by sulforhodamine B assay; format: functional; details: A549, 48 h, read-out: GI
SK-OV-3 [39] = assay: Antiproliferative activity against human SKOV3 cells after 48 hrs by sulforhodamine B assay; format: functional, cell-based; details: SK-OV-3, 48 h
HCT-15 [40] = assay: Antiproliferative activity against human HCT15 cells after 48 hrs by sulforhodamine B assay; format: functional, cell-based; details: HCT-15, 48 h
DU-145 [41] = assay: Antiproliferative activity against human DU145 cells after 48 hrs by sulforhodamine B assay; format: functional, cell-based; details: DU-145, 48 h
SF-295 [42] = assay: Cytotoxicity against human SF295 cells assessed as age growth inhibition at 50 uM after 48 hrs by sulforhodamine B assay; format: functional; details: SF-295, 48 h, read-out: GI
HCT-15 [43] = assay: Cytotoxicity against human HCT15 cells assessed as age growth inhibition at 10 uM after 48 hrs by sulforhodamine B assay; format: functional; details: HCT-15, 48 h, read-out: GI
COLO 205 [44] = assay: Cytotoxicity against human COLO205 cells assessed as age growth inhibition at 100 uM after 48 hrs by sulforhodamine B assay; format: functional; details: COLO 205, 48 h, read-out: GI
HEp-2 [45] = assay: Cytotoxicity against human HEP2 cells assessed as age growth inhibition at 100 uM after 48 hrs by sulforhodamine B assay; format: functional; details: HEp-2, 48 h, read-out: GI

Work on O=c1[nH]cc(F)c(=O)[nH]1 [FLUOROURACIL] yielded an inhibition of growth at 20 µM (DU-145 [1]) of 29%, an inhibition of growth at 20 µM (COLO 205 [2]) of 27% and an inhibition of growth at 20 µM (HCT-15 [3]) of 30%. It also gave an inhibition of growth at 20 µM (SK-OV-3 [4]) of 46%, an inhibition of growth at 20 µM (A549 [5]) of 57% and an inhibition of growth at 20 µM (IGROV-1 [6]) of 29%. For the same compound, the inhibition of growth at 20 µM (HOP-62 [7]) was 37%, the inhibition of growth at 20 µM (HEp-2 [8]) was 77% and the inhibition of growth at 20 µM (SF-295 [9]) was 11%.

For CC1(C)CCC[C@@]2(C)C1=C[C@H]1C(=O)O[C@H](c3ccc(Cl)cc3)[C@H]12, the inhibition of growth at 10 µM (DU-145 [10]) was 16%, the inhibition of growth at 50 µM (DU-145 [11]) was 30% and the inhibition of growth at 100 µM (HOP-62 [12]) was 38%. For the same compound, the inhibition of growth at 50 µM (HOP-62 [13]) was 29%, the IC50 (SF-295 [14]) was greater than 100 µM and the inhibition of growth at 100 µM (IGROV-1 [15]) was 16%. The inhibition of growth at 100 µM (SF-295 [16]) was 31%, the inhibition of growth at 10 µM (SF-295 [17]) was 20% and the inhibition of growth at 10 µM (HEp-2 [18]) was 8%. The inhibition of growth at 10 µM (COLO 205 [19]) was 22%, the inhibition of growth at 50 µM (COLO 205 [20]) was 24% and the IC50 (COLO 205 [21]) was greater than 100 µM. The inhibition of growth at 50 µM (SK-OV-3 [22]) was 14%, the inhibition of growth at 10 µM (IGROV-1 [23]) was 1% and the inhibition of growth at 100 µM (DU-145 [24]) was 35%. The inhibition of growth at 10 µM (A549 [25]) was 10%, the inhibition of growth at 100 µM (HCT-15 [26]) was 30% and the inhibition of growth at 50 µM (A549 [27]) was 12%. It also gave an inhibition of growth at 10 µM (HOP-62 [28]) of 27%, an IC50 (HEp-2 [29]) greater than 100 µM and an inhibition of growth at 100 µM (SK-OV-3 [30]) of 24%. For the same compound, the inhibition of growth at 50 µM (HCT-15 [31]) was 29%, the inhibition of growth at 10 µM (SK-OV-3 [32]) was 10% and the IC50 (IGROV-1 [33]) was greater than 100 µM. It also gave an IC50 (A549 [34]) greater than 100 µM, an inhibition of growth at 50 µM (HEp-2 [35]) of 18% and an inhibition of growth at 50 µM (IGROV-1 [36]) of 15%. The IC50 (HOP-62 [37]) was greater than 100 µM, the inhibition of growth at 100 µM (A549 [38]) was 20% and the IC50 (SK-OV-3 [39]) was greater than 100 µM. For the same compound, the IC50 (HCT-15 [40]) was greater than 100 µM, the IC50 (DU-145 [41]) was greater than 100 µM and the inhibition of growth at 50 µM (SF-295 [42]) was 23%. It also gave an inhibition of growth at 10 µM (HCT-15 [43]) of 9%, an inhibition of growth at 100 µM (COLO 205 [44]) of 25% and an inhibition of growth at 100 µM (HEp-2 [45]) of 18%.
